Here are results for 1 molecule from patent publication US20260193242A1, “USEFUL COMPOUNDS FOR MODULATING INFLAMMATION” (FLAGSHIP PIONEERING INNOVATIONS VI, LLC, priority 2022, published 2026).

SMILES strings stand for the structures.

Experiment [1] has as its system R848-driven IRF reporter (Lucia luciferase, ISG54 promoter/IFN-stimulated response elements) in THP-1 cells. Description: TLR7/8 (R848) stimulated interferon response element reporter gene assay in THP1-Dual cells. Format: cell-based. Particulars: Homo sapiens, THP-1, 10 μM compound, 1 μM R848, THP1-Dual cells; read-out: R848-driven IRF reporter gene assay (Percent inhibition at 10 μM). The protocol:
Compounds described herein are added to the human leukemic monocyte-like cell line THP-1 for bioactivity assessment. THP1-Dual cells (InvivoGen, San Diego, CA) feature the Lucia gene, a secreted luciferase reporter gene, under the control of an ISG54 minimal promoter in conjunction with five IFN-stimulated response elements. THP1-Dual cells also express a secreted embryonic alkaline phosphatase (SEAP) reporter gene driven by an IFN-β minimal promoter fused to five copies of the NF-κB consensus transcriptional response element and three copies of the c-Rel binding site. As a result, THP1-Dual cells allow the simultaneous study of the NF-κB pathway, by monitoring the activity of SEAP, and the IRF pathway, by assessing the activity of Lucia luciferase.
THP-1 dual reporter cells were grown in RPMI 1640 culture medium with 2 mM L-glutamine, 25 mM HEPES, 10% heat-inactivated fetal bovine serum, 100 μg/ml Normocin antibiotic (InvivoGen), Pen-Strep antibiotic (100 U/ml-100 μg/ml, InvivoGen). On the day of the assay, cells were seeded in a 384 flat-bottom well plate at 25,000 cells/well and incubated for 2 hours. Cells were then incubated with 10 μM of the compounds described herein or with 1 μM of IKK-16 (Selleck), a potent inhibitor of IκB kinases (IKKs) or with DMSO (vehicle control) for 2 hours, followed by the addition of the synthetic TLR7/8 agonist R848 at 1 μM and incubation for 16 hours. After incubation was concluded, the cultures supernatants were collected and IRF related activity was assessed by measurement of the Lucia luciferase, using Quanti-Luc assay (InvivoGen). NF-κB pathway activity was assessed by quantifying SEAP using Quanti-Blue assay (InvivoGen).
On the technique in general: A reporter such as luciferase makes a cellular process visible.

The next experiment has as its system LPS-stimulated MoDC. Description: TLR4 stimulated pro-inflammatory cytokine release in primary human monocyte-derived dendritic cells. The class given is cell-based. Particulars: healthy human donors D14 and D15, dose response. The text has this: Monocyte derived DC (MoDC) were differentiated from healthy human donor derived CD14+ monocytes. Commercially available freshly prepared Leukopaks were obtained from healthy blood donor and kept refrigerated on ice before spin centrifuged and the pelleted cells are rinsed and resuspended with MACS buffer (Miltenyi Biotec). Next, CD14+ monocytes were purified using MultiMACS™ Cell24 Separator-Plus instrumentation and reagents according to the manufacturer (Miltenyi Biotec) instructions. The resulting purified CD14+ cell fraction was washed, enumerated, and subsequently cryopreserved for later use. At the experiment first day cryopreserved CD14+ cells were thawed, rinsed with culture media, and then resuspended in culture media principally composed of RPMI (Invitrogen) supplemented with 10% v/v heat inactivated FBS. For generation of MoDC, these CD14+ cells were enumerated and seeded into 75 cm^2 tissue culture flasks in 30 mL of culture media supplemented with GM-CSF (40-100 ng/ml) and IL-4 (25 ng/ml). Every other day, half of the culture media was replaced with fresh media (containing the same cytokine supplementation) and after 6-7 days of culture, fully differentiated and mature MoDC were obtained as confirmed by conventional Immuno-phenotype markers (levels of expression or absence of surface CD80, CD83, CD86, CD209, HLA-DR, CD14 & CD64) that were verified by flow-cytometry. Fully differentiated (mature) MoDCs, were seeded into 96 flat-well plates and incubated with various concentrations of the compounds described herein, or with control solution (DMSO), or with the pharmacologic inhibitors Cyclosporin-A (CsA) or BAY 61-3606 (which is a known inhibitor of Syk kinase) for 6 hours. Next, the cells were stimulated with Toll-like receptor agonists R848 (TLR7/8) or LPS (TLR4), and further incubated for 18-20 hours. After incubation concluded, culture supernatants were collected, and the levels of inflammatory cytokines and chemokines were measured in a triplicate setting for each condition by Luminex® multiplex assay.

Regarding `CN1[C@@H](C(=O)O)CC[C@H]1[C@@H]1CSC(c2ccccc2O)=N1` [Compound I-4, (2R,5S)-5-((R)-2-(2-hydroxyphenyl)-4,5-dihydrothiazol-4-yl)-1-methylpyrrolidine-2-carboxylic acid], the inhibition – broadly, how much of the control response was suppressed – at 10 µM in experiment [1] was not below 50%. Besides, in the experiment on LPS-stimulated MoDC, the IL-6 level result was “statistically significant decrease”, the IL-12p70 level result is “statistically significant decrease”, the IL-23 level result was “statistically significant decrease” and the TNFα level entry is reported as “statistically significant decrease”.
